{
  "source": "paper PMC4575645",
  "about": "(ACS chemical biology, 2015)",
  "key": {"CalS13": {"target": "CalS13 (Micromonospora echinospora, UniProt Q8KND8)", "test": "X-ray crystal structure, […] Å", "type": "binding"}, "WecE": {"target": "WecE (Escherichia coli, UniProt P27833)", "sequence (P27833 whole entry)": "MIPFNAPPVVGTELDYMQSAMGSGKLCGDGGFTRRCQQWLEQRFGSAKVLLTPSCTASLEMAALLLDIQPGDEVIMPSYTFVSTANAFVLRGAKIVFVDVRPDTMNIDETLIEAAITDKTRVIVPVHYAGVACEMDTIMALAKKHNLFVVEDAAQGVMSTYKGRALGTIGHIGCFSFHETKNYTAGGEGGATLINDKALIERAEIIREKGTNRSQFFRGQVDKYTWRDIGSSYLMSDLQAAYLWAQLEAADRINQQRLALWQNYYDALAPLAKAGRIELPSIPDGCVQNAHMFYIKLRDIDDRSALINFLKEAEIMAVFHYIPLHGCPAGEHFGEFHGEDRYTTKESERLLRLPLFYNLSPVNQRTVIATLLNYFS", "test": "X-ray crystal structure, […] Å", "type": "binding", "conditions": "covalent external aldimine with PLP; eight subunits"}},
  "data": [
    {"compound": "Cc1ncc(COP(=O)(O)O)c(C=O)c1O", "note": "[PLP]", "values": [
      {"measurement": "X-ray crystal structure, 2.47 Å", "setting": "CalS13; covalent internal aldimine with Lys202, all six subunits", "result": "All six subunits contained PLP as internal aldimines of Lys202"}
    ]},
    {"compound": "Cc1cn([C@H]2C[C@H](O)[C@@H](COP(=O)(O)OP(=O)(O)O[C@H]3O[C@H](C)[C@H](N)[C@H](O)[C@H]3O)O2)c(=O)[nH]c1=O", "note": "[TDP-4-amino-4,6-dideoxy-α-D-galactose]", "values": [
      {"measurement": "X-ray crystal structure, 2.24 Å", "setting": "WecE", "result": "WecE cocrystallization led to WecE/PLP/TDP-4-amino-4,6-dideoxygalactose ternary complexes"}
    ]},
    {"compound": "Cc1cn([C@H]2C[C@H](O)[C@@H](COP(=O)(O)OP(=O)(O)O)O2)c(=O)[nH]c1=O", "note": "[TDP]", "values": [
      {"measurement": "X-ray crystal structure, 2.47 Å", "setting": "CalS13; with PLP internal aldimine, three of six subunits", "result": "three had electron density for just TDP"}
    ]}
  ]
}
